Data set [1] in a line: In vitro fluorescence emission spectra and compatibility of nucleic acid and protein/cytoplasm dyes. Type of data set: physicochemical. The settings on record: for source of the resultant fluorescence emission signal of the mixture: Mitoxantrone mixed with Phloxine B at 100:1 molar ratio. How it is done: Additional incompatibility results from overlapping of the component peak emissions.
Daunorubicin (1 μM), Fluorescein (1 nM) and the combination of the two were excited at 375 nm, with resultant fluorescence emission.
With 405 nm excitation, Proflavine at 0.25 μM, Rose Bengal at 10 μM, and the combination result in roughly the same order of magnitude peaks resulting from their respective fluorescence.
FIGS. 8A-8F show emission spectra of various drug dye candidates. FIGS. 8A-8D show Mitoxantrone as a Hematoxylin-alternative candidate at 10 μM, with Phloxine B at 0.1 μM as an Eosin-alternative candidate drug-dye, and a combination of the two excited at different wavelengths: (FIG. 8A) 375 nm, (FIG. 8B) 405 nm, (FIG. 80) 455 nm, and (FIG. 8D) 488 nm. […] Additionally, there was overlap of emission spectra (FIG. 9) and the combination of certain DNA and protein dyes decreased the emission intensity relative to the same concentration of the component dye alone (FIG. 9 and FIG. 10).
The stain panels listed below use a combination of nucleus dyes and protein/cytoplasm dyes that have been optimized for their compatibility.

For another data set, the system named is bovine lung tissue. The data set is described as follows: Topical drug-dye staining of ex vivo bovine lung tissue imaged with confocal microscopy. The settings on record: for localization of drug-dye: ex vivo bovine lung tissue, qualitatively at the concentrations of FIGS. 2A-2D; for staining pattern: single dye applied topically to ex vivo bovine lung tissue, confocal microscopy. From the text: Image field is 635.5 μm tall×wide. Inset is the structure of Proflavine.
Image field is 635.5 μm tall×wide. […]
Imaging was with confocal microscopy, with a bovine lung sample thickness of 10 μm, and an image field of 635.5 μm^2.
Imaging was with confocal microscopy settings at 488 nm excitation after topical application to the bovine lung specimen. Image field is 635.5 μm^2 at 10 μm thickness.
The dyes were pipetted in situ upon bovine tissue ex vivo and examined under confocal microscopy with a 488 nm laser with 10 μm optical thickness and imaged fields being 635.5 μm^2.
Referring to FIG. 1, 50 μl at 20 μM of Proflavine was topically applied directly to ex vivo bovine lung tissue in situ and imaged immediately with confocal microscopy. […] Likewise, Fluorescein, Phenol Red, Phloxine B, and Rose Bengal were each added to ex vivo bovine lung tissue and imaged under confocal microscopy (see FIGS. 2A-2I). […] This combination was then added topically to bovine lung tissue and imaged using confocal microscopy (FIG. 3). […]

The subject of data set [2] is human breast cancer metastasized to the lung. The data set is described as follows: Staining of human breast cancer metastasized to the lung with Rose Bengal and Proflavine. The following applies: Rose Bengal and Proflavine combined, concentrations similar to FIG. 6A.

Each structure is given as a SMILES string.

On to `O=C([O-])c1c(Cl)c(Cl)c(Cl)c(Cl)c1-c1c2cc(I)c(=O)c(I)c-2oc2c(I)c([O-])c(I)cc12.[Na+].[Na+]` [Rose Bengal], for which the Approximate peak fluorescence in data set [1] is recorded as about 565 nm. In addition, in the data set with bovine lung tissue, the localization of drug-dye result is on record as “appeared to localize to cell cytoplasm in addition to the connective tissue fibers”; the staining pattern result was “variable staining of the proteinaceous connective tissue and cellular cytoplasm, granules or vesicles”. The “structure outlined by the stain” value in data set [2] is “proteins”.

Regarding `Nc1ccc2cc3ccc(N)cc3nc2c1` [Proflavine], the Approximate peak fluorescence in data set [1] is about 508 nm. In addition, the staining pattern entry in the data set with bovine lung tissue is given as “staining like those typical of a fluorescent DNA dye”. Besides, the “structure outlined by the stain” value in data set [2] is “nucleus”.

For the molecule `Nc1c(/N=N/c2ccc(-c3ccc(/N=N/c4cc(S(=O)(=O)O)c5ccccc5c4N)cc3)cc2)cc(S(=O)(=O)O)c2ccccc12` [Congo Red], the Approximate peak fluorescence in data set [1] is recorded as about 425 nm.

With `COc1cccc2c1C(=O)c1c(O)c3c(c(O)c1C2=O)C[C@@](O)(C(C)=O)C[C@@H]3O[C@H]1C[C@H](N)[C@H](O)[C@H](C)O1` [Daunorubicin], the “change of fluorescence emission peak with increasing concentrations of Phloxine B” value in data set [1] (488 nm excitation, peak around 590 nm) was “progressive decrease of fluorescence emission”.

Take `O=C([O-])c1c(Cl)c(Cl)c(Cl)c(Cl)c1-c1c2cc(Br)c(=O)c(Br)c-2oc2c(Br)c([O-])c(Br)cc12.[Na+].[Na+]` [Phloxine B]: the Approximate peak fluorescence in data set [1] is reported as about 550 nm. For the same molecule, the “source of the resultant fluorescence emission signal of the mixture” value in data set [1] (488 nm excitation) was “nearly all the fluorescence emission signal from Phloxine B”. Besides, in the data set on bovine lung tissue, the localization of drug-dye entry is reported as “appeared to localize to cell cytoplasm in addition to the connective tissue fibers”; the staining pattern result is “variable staining of the proteinaceous connective tissue and cellular cytoplasm, granules or vesicles”.

For the molecule `O=C1c2c(O)ccc(O)c2C(=O)c2c(NCCNCCO)ccc(NCCNCCO)c21` [Mitoxantrone], the Approximate peak fluorescence in data set [1] was about 685 nm. Moreover, in data set [1] (455 nm excitation), the “concentration dependence of fluorescence” value is on record as “concentration-dependent fluorescence”. The “source of the resultant fluorescence emission signal of the mixture” value in data set [1] (375 nm excitation) is “primarily Mitoxantrone”.

For the molecule `CN(C)c1ccc2nc3ccc(=[N+](C)C)cc-3sc2c1` [Methylene Blue], the Approximate peak fluorescence in data set [1] is recorded as about 695 nm.

For the origin of these results see patent US20230054407A1, “OPTICAL BIOPSY STAIN PANELS AND METHODS OF USE” (ARIZONA BOARD OF REGENTS ON BEHALF OF THE UNIVERSITY OF …, priority 2020, published 2023).
